Measurements taken from ChEMBL document CHEMBL1153514, “Fundamental relationships between structure, reactivity, and biological activity for the duocarmycins and CC-1065” (J Med Chem, 2009).
pIC50: −log10 of the molar value.

Key:
[1] = Stability assessed as half life at pH 3; format: physicochemical; settings: buffer
[2] = Stability assessed as half life at pH 7; format: physicochemical; settings: buffer
L1210 = assay: Cytotoxicity against mouse L1210 cells; format: functional, cell-based
[3] = Stability assessed as half life at pH 2; format: physicochemical; settings: buffer

| SMILES | half-life [1] [h] | pIC50 (L1210) | further results |
| --- | --- | --- | --- |
| COC(=O)N1C[C@H]2C[C@@]23C1=CC(=O)c1ccccc13 | 0.95 | – | – |
| CCS(=O)(=O)N1C[C@H]2C[C@@]23C1=CC(=O)c1ccccc13 | 6.38 | – | – |
| CC(C)(C)OC(=O)N1CC[C@H]2C[C@@]23C1=CC(=O)c1ccccc13 | – | – | half-life [2]: 544 h |
| COC(=O)c1cc2c([nH]1)C(=O)C=C1N(C(=O)OC(C)(C)C)C[C@H]3C[C@]123 | – | – | Stability [2]: Stable |
| COc1cc2cc(C(=O)N3C[C@H]4C[C@@]45C3=CC(=O)c3ccccc35)[nH]c2c(OC)c1OC | 133 | 10.70 | – |
| CC(C)(C)OC(=O)N1C[C@H]2C[C@@]23C1=CC(=O)c1ccc(C#N)cc13 | 3.55 | – | – |
| O=C1C=C2NC[C@H]3C[C@@]23c2ccccc21 | 4200 | – | Stability [2]: Stable |
| COC(=O)c1cc2c([nH]1)[C@@]13C[C@@H]1CN(C(=O)OC(C)(C)C)C3=CC2=O | – | 7.48 | – |
| COc1cc2cc(CN3C[C@H]4C[C@@]45C3=CC(=O)c3ccccc35)[nH]c2c(OC)c1OC | – | 5.85 | t1/2 [1]: 1291.7 days |
| O=C1C=C2N(c3ccccc3)C[C@H]3C[C@@]23c2ccccc21 | – | 5.96 | half-life [3]: 171 h |
| COc1ccc(N2C[C@H]3C[C@@]34C2=CC(=O)c2ccccc24)cc1 | – | 5.49 | half-life [3]: 198 h |
| COC(=O)c1cc2c([nH]1)[C@@]13C[C@@H]1CN(C(=O)c1cc4cc(OC)c(OC)c(OC)c4[nH]1)C3=CC2=O | – | 10.30 | – |
| COC(=O)c1ccc(N2C[C@H]3C[C@@]34C2=CC(=O)c2ccccc24)cc1 | – | 6.48 | half-life [3]: 138 h |
| COC(=O)C1=NC2=C(OCc3ccccc3)C=C3N(C(=O)c4cc5cc(OC)c(OC)c(OC)c5[nH]4)C[C@H]4C[C@@]34C2=C1 | 0.417 | 8.30 | half-life [2]: 0.717 h |
| O=C1C=C2CC[C@H]3C[C@@]23c2ccccc21 | 1.3 | – | half-life [2]: 4 h |
| CC(C)(C)OC(=O)N1C[C@H]2C[C@@]23C1=CC(=O)c1ccccc13 | – | – | Stability [2]: Stable |
| COC(=O)c1cc2c([nH]1)C(=O)C=C1N(C(=O)c3cc4cc(OC)c(OC)c(OC)c4[nH]3)C[C@H]3C[C@]123 [DUOCARMYCIN] | 177 | – | Stability [2]: Stable |

Further lines, with some results ahead:

| half-life [1] [h] | SMILES | pIC50 (L1210) | further results |
| --- | --- | --- | --- |
| 0.6 | CNC(=O)N1C[C@H]2C[C@@]23C1=CC(=O)c1ccccc13 | – | – |
| 1.6 | CCC(=O)N1C[C@H]2C[C@@]23C1=CC(=O)c1ccccc13 | – | – |
| 3.93 | COC(=O)c1cccc2c1C(=O)C=C1N(C(=O)OC(C)(C)C)C[C@H]3C[C@]123 | 7.15 | – |
| 206 | Cc1csc2c1[C@@]13C[C@@H]1CN(C(=O)OC(C)(C)C)C3=CC2=O | 7.52 | – |
| 209 | Cc1cc2c(s1)[C@@]13C[C@@H]1CN(C(=O)OC(C)(C)C)C3=CC2=O | 7.60 | – |
| 0.03 | CC(C)(C)OC(=O)N1CCC[C@H]2C[C@@]23C1=CC(=O)c1ccccc13 | 5.30 | half-life [2]: 2.1 h |
| 1.83 | COc1ccc2c(c1)[C@@]13C[C@@H]1CN(C(=O)OC(C)(C)C)C3=CC2=O | – | – |
